# Laboratory results reported in the supplement of paper PMC11208160.
# Assay: recombinant UMI read abundance after kanamycin selection (control-corrected) (log10(CPM+1)); higher = more efficient recombination; extreme values may be limits of the assay; sequences stand for … in AGTGCAGAGAAAATCGGCCAGTTTTCTCTGCCTGCAGTCCGCATGCCGTGGGACCCCTTGGGTTCTAACCTGTTGCCTAGATTTATGCAGCGGACTGCCTTTCTCCCAAAGTGATAAACCGG…AGGTTGGTTTCACT; site = the 11-nt donor
# Procedure, shortened: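 Sequenced counts of recombinant UMIs were turned into CPM, averaged across replicates and scaled with control-derived factors. The reported figure is log10(CPM+1). Those UMIs, each 12 nt long, tagged donor and donor-binding-loop pairs on a plasmid with a promoterless kanamycin gene, screened as a pool in Escherichia coli with IPTG (0.07 mM) plus kanamycin or without selection.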
# 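Note: IS621 bridge recombinase in Escherichia coli cells against a fixed T5 target plasmid.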
row,Sequence,recombinant UMI read abundance (log10)
1,CGGAATCCATGGACCGGTTTTCCCGGTAATCCGTATTTGTT (site CGTAATCCTGA),0
2,CGGAATCCATGGACCGGTTTTCCCGGTAATCCGTATTTGTT (site CGTAGTCCTAA),0.00941
3,CGGAATCCATGGACCGGTTTTCCCGGTAATCCGTATTTGTT (site CGTTATCCTAA),0.00294
4,CGGAATCCATGGACCGGTTTTCCCGGTAATCCGTATTTGTT (site CTCAATCCTAA),0
5,CGGAATCCATGGACCGGTTTTCCCGGTAATCCGTATTTGTT (site CTGAACCCTAA),0.0207
6,CGGAATCCATGGACCGGTTTTCCCGGTAATCCGTATTTGTT (site CTGAATCCTAA),0.0031
7,CGGAATCCATGGACCGGTTTTCCCGGTAATCCGTATTTGTT (site CTGAATCCTAC),0
8,CGGAATCCATGGACCGGTTTTCCCGGTAATCCGTATTTGTT (site CTGAATCCTCA),0.0195
9,CGGAATCCATGGACCGGTTTTCCCGGTAATCCGTATTTGTT (site CTGAATGCTAA),0.00589
10,CGGAATCCATGGACCGGTTTTCCCGGTAATCCGTATTTGTT (site CTGACTCCTAA),0.00378
11,CGGAATCCATGGACCGGTTTTCCCGGTAATCCGTATTTGTT (site CTGCATCCTAA),0.0146
12,CGGAATCCATGGACCGGTTTTCCCGGTAATCCGTATTTGTT (site GAGAATCCTAA),0.00637
13,CGGAATCCATGGACCGGTTTTCCCGGTAATCCGTATTTGTT (site GGGAAGCCTAA),0.0234
14,CGGAATCCATGGACCGGTTTTCCCGGTAATCCGTATTTGTT (site GGGAATACTAA),0
15,CGGAATCCATGGACCGGTTTTCCCGGTAATCCGTATTTGTT (site GGGAATCCTAA),0
16,CGGAATCCATGGACCGGTTTTCCCGGTAATCCGTATTTGTT (site GGGAATCCTAT),0
17,CGGAATCCATGGACCGGTTTTCCCGGTAATCCGTATTTGTT (site GGGAATCCTGA),0
18,CGGAATCCATGGACCGGTTTTCCCGGTAATCCGTATTTGTT (site GGGAGTCCTAA),0.00491
19,CGGAATCCATGGACCGGTTTTCCCGGTAATCCGTATTTGTT (site GGGTATCCTAA),0
20,CGGAATCCATGGACCGGTTTTCCCGGTAATCCGTATTTGTT (site GGTAATCCTAA),0
21,CGGAATCCATGGACCGGTTTTCCCGGTAATCCGTATTTGTT (site TGCAATCCTAA),0.0105
22,CGGAATCCATGGACCGGTTTTCCCGGTAATCCGTATTTGTT (site TGGAACCCTAA),0.0136
23,CGGAATCCATGGACCGGTTTTCCCGGTAATCCGTATTTGTT (site TGGAATCCTAA),0

row,Sequence,recombinant UMI read abundance (log10)
1,CGGAATCCATGGACCGGTTTTCCCGGTAATCCGTATTTGTT (site TGGAATCCTAC),0
2,CGGAATCCATGGACCGGTTTTCCCGGTAATCCGTATTTGTT (site TGGAATCCTCA),0.00675
3,CGGAATCCATGGACCGGTTTTCCCGGTAATCCGTATTTGTT (site TGGAATGCTAA),0.00525
4,CGGAATCCATGGACCGGTTTTCCCGGTAATCCGTATTTGTT (site TGGACTCCTAA),0.027
5,CGGAATCCATGGACCGGTTTTCCCGGTAATCCGTATTTGTT (site TGGCATCCTAA),0.00352
6,CGGAATCCATGGACCGGTTTTCCCGGTAATCCGTATTTGTT (site TTGAATCCTAA),0.00378
7,CGGAATGCATGGACCGGTTTTCCCGGTAATCCGTATTTGCA (site CGGAATGCTTG),2.28
8,CGGAATGCATGGACCGGTTTTCCCGGTAATCCGTATTTGTG (site CGGAATCCTAA),0
9,CGGAATGCATGGACCGGTTTTCCCGGTAATCCGTATTTGTG (site CGGAATGCTCA),2.58
10,CGGACTCCATGGACCGGTTTTCCCGGTAATCCGTATTTGTT (site CGGAATCCTAA),0.00938
11,CGGACTCCATGGACCGGTTTTCCCGGTAATCCGTATTTGTT (site CGGACTCCTAA),1.58
12,CGGACTCCATGGACCGGTTTTCCCGGTAATCCGTATTTGTT (site CGGAGTCCTAA),0.00177
13,CGGACTCCATGGACCGGTTTTCCCGGTAATCCGTATTTGTT (site CGGATTCCTAA),0.00394
14,CGGAGATCATGGACCGGTTTTCCCGGTAATCCGTATTTGGT (site CGGAGATCTAC),2.19
15,CGGAGCACATGGACCGGTTTTCCCGGTAATCCGTATTTGAA (site CGGAGCACTTT),1.77
16,CGGAGTCCATGGACCGGTTTTCCCGGTAATCCGTATTTGTT (site CGGAATCCTAA),0.767
17,CGGAGTCCATGGACCGGTTTTCCCGGTAATCCGTATTTGTT (site CGGACTCCTAA),0.011
18,CGGAGTCCATGGACCGGTTTTCCCGGTAATCCGTATTTGTT (site CGGAGTCCTAA),0.684
19,CGGAGTCCATGGACCGGTTTTCCCGGTAATCCGTATTTGTT (site CGGATTCCTAA),0
20,CGGATACCATGGACCGGTTTTCCCGGTAATCCGTATTTGTT (site CGGAATCCTAA),0.00671
21,CGGATACCATGGACCGGTTTTCCCGGTAATCCGTATTTGTT (site CGGATACCTAA),0
22,CGGATTGCATGGACCGGTTTTCCCGGTAATCCGTATTTGCT (site CGGATTGCTAG),1.79
23,CGGCAGACATGGACCGGTTTTCCCGGTAATCCGTATTTGGT (site CGGCAGACTAC),1.9

row,Sequence,recombinant UMI read abundance (log10)
1,CGGCCCTCATGGACCGGTTTTCCCGGTAATCCGTATTTGCA (site CGGCCCTCTTG),3.02
2,CGGCGGACATGGACCGGTTTTCCCGGTAATCCGTATTTGTG (site CGGCGGACTCA),1.64
3,CGGCGTTCATGGACCGGTTTTCCCGGTAATCCGTATTTGAC (site CGGCGTTCTGT),1.69
4,CGGCTGCCATGGACCGGTTTTCCCGGTAATCCGTATTTGTT (site CGGCTGCCTAA),0.0892
5,CGGCTTACATGGACCGGTTTTCCCGGTAATCCGTATTTGTC (site CGGCTTACTGA),1.65
6,CGGGAACCATGGACCGGTTTTCCCGGTAATCCGTATTTGAC (site CGGGAACCTAT),0
7,CGGGAACCATGGACCGGTTTTCCCGGTAATCCGTATTTGAC (site CGGGAACCTCT),0
8,CGGGAACCATGGACCGGTTTTCCCGGTAATCCGTATTTGAC (site CGGGAACCTGT),0
9,CGGGAACCATGGACCGGTTTTCCCGGTAATCCGTATTTGAC (site CGGGAACCTTT),0.0135
10,CGGGAATCATGGACCGGTTTTCCCGGTAATCCGTATTTGAT (site CGGGAAACTAT),1.23
11,CGGGAATCATGGACCGGTTTTCCCGGTAATCCGTATTTGAT (site CGGGAACCTAT),0
12,CGGGAATCATGGACCGGTTTTCCCGGTAATCCGTATTTGAT (site CGGGAAGCTAT),0.284
13,CGGGAATCATGGACCGGTTTTCCCGGTAATCCGTATTTGAT (site CGGGAATCTAT),2.01
14,CGGGACACATGGACCGGTTTTCCCGGTAATCCGTATTTGTC (site CGGGACACTGA),3.03
15,CGGGAGCCATGGACCGGTTTTCCCGGTAATCCGTATTTGCC (site CGGGAGACTGG),0.0249
16,CGGGAGCCATGGACCGGTTTTCCCGGTAATCCGTATTTGCC (site CGGGAGCCTGG),0
17,CGGGAGCCATGGACCGGTTTTCCCGGTAATCCGTATTTGCC (site CGGGAGGCTGG),0.991
18,CGGGAGCCATGGACCGGTTTTCCCGGTAATCCGTATTTGCC (site CGGGAGTCTGG),1
19,CGGGAGTCATGGACCGGTTTTCCCGGTAATCCGTATTTGCC (site AGGGAGTCTGG),0
20,CGGGAGTCATGGACCGGTTTTCCCGGTAATCCGTATTTGCC (site CAGGAGTCTGG),2.51
21,CGGGAGTCATGGACCGGTTTTCCCGGTAATCCGTATTTGCC (site CCGGAGTCTGG),0
22,CGGGAGTCATGGACCGGTTTTCCCGGTAATCCGTATTTGCC (site CGAGAGTCTGG),2.48
